The values below come from patent US9630939B2, “Derivative of homoserine lactone, and preparation method and use thereof” (priority 2013, dated 2017).

The test system of series [1] is C. violaceum CV026. Kind of series: Preliminary screening of bacterial quorum sensing agonistic / inhibitory activity on LB plate (purple stain / white circle). Conditions: for Regulatory activity (bacterial quorum sensing): 1 μl of 0.065M compound spotted on LB plate with C. violaceum CV026, without (agonistic) or with inducer C6-HSL (inhibitory), 30° C., 16-18 h. It is filed as cell-based. The procedure:
1.1 Preparation work: different compounds to be tested (Compounds 1-29 prepared in Example 1-29 and intermediates 1-3) were weighted and then were dissolved in 200 μl DMSO (dimethyl sulfoxide) to prepare a solution at a concentration of 0.065M. 5.0 mg inducer, N-hexanoyl homoserine lactone (C6-HSL, purchased from Sigma Company), was weighted and was dissolved in 200 μl DMSO (at a concentration of 0.125M), and the compounds and the inducer were stored at 4[…] for further use. C. violaceum CV026 (donated by Professor McLean J C from Texas State University) in LB culture medium (LB culture medium consisting of 1% (percentage by mass) tryptone, 0.5% (percentage by mass) yeast extract, 1% (percentage by mass) NaCl and water) was cultured under shaking in a shaker at 30 °C, 200 rpm to get the culture medium for further use.
1.2 Method for preliminary screening of compounds having agonistic activity: 400 μl C. violaceum CV026 (at a bacterial concentration of 1×10^8/ml) was added to 5 ml melted semi-solid LB culture medium, and was mixed well; the mixed culture medium was poured into a solid LB plate; when the mixed culture medium was solidified on the plate, lattice was made thereon; 1 μl of the dissolved compounds to be tested (Compounds 1-29 in Examples 1-29, at a concentration of 0.065M) was spotted on the plate; when the compounds on the plate was dried in air, the plate was put in a 30° C. oven upside down and was cultured for a period of 16-18 h. If the compound to be tested has an agonistic effect on C. violaceum CV026 on the LB plate, purple stain will be induced on the LB plate. The agonistic activity of a compound is determined depending on whether purple stain is induced for C. violaceum CV026 on LB plate as well as the purple depth.
1.3 Method for preliminary screening of compounds having inhibitory activity: the inducer C6—HSL was diluted gradiently to 1000 times by means of 2-fold dilution; 15 μl diluted inducer and 400 μl C. violaceum CV026 in exponential phase (at a bacterial concentration of 1×10^8/ml) were mixed well and then were added to a 5 ml melted semi-solid LB culture medium; the mixture of inducer, C. violaceum, and semi-solid LB was poured onto a solid LB plate; when the mixture was solidified on the plate, lattice was made thereon; 1 μl of the dissolved compounds to be tested (Compounds 1-29 prepared in Example 1-29 and intermediates 1-3, at a concentration of 0.065M) was spotted on the plate; when the compounds on the plate were dried in air, the plate was put in a 30° C. oven upside down and was cultured for a period of 16-18 h. […] The inhibitory activity of a compound is preliminary determined depending on the size of the white circle appeared after C. violaceum CV026 was inhibited on LB plate.

Series [2] concerns C. violaceum CV026. The experiment in a line: Measurement of IC50 of compounds having an inhibitory effect on C. violaceum quorum sensing (purple pigment absorbance at 585 nm). The series is classed as cell-based. Conditions: Chromobacterium violaceum, read-out: IC50 of compounds having bacterial quorum sensing inhibitory activity. The procedure:
2.1 The wells of a 12-well plate were marked as initial concentration, 2, 4, 8, 16, 32, 64, 128, 256, DMSO group, and a blank control group from left to right and from up to bottom, respectively.
2.2 The monoclonal C. violaceum CV026 grew on LB solid plate was cultured to exponational phase in a 5 ml fresh LB liquid culture medium, 50 μl was then taken for seeding in a 5 ml LB culture medium, and was cultured until the optical density OD value was about 1.0 at 585 nm; the culture was then mixed well with LB culture medium at a ratio of 1:9 by volume (with OD of about 0.15), and was added to a 12-well plate in an amount of 2 ml/well.
2.3 The compounds preliminarily screened to have quorum sensing inhibitory activity were dissolved respectively in DMSO (at a concentration of 0.065M), and then 10 μl was taken into 10 μl DMSO solution to achieve the purpose of 2-fold dilution, and so on. Each compound was gradiently diluted to a highest fold of 256 (gradient dilution of 2, 4, 8, 16, 32, 64, 128, 256 fold).
2.4 To each well, 15 μl 1000-fold diluted inducer C6—HSL (initial concentration of 0.125M) and 8 μl compound solution at each diluted gradient was added; to DMSO control group, 8 μl DMSO was added; to a blank control group, 8 μl LB culture medium was added. Finally, it was ensured that 2 ml culture in each of the 12-well plate was mixed well.
2.5 The 12-well plate was placed in a 30° C. shaker at 130 rpm and was cultured for 10-12 h.
2.6 After the culture was finished, 1 ml culture was taken from each well and was put in a 1.5 ml EP tube and then was centrifugated at 12000 rpm for 10 mins. The supernatant of the culture was sucked out, and 500 μl DMSO was added to each EP tube to dissolve the purple pigment in the culture. After the pigment was completely dissolved, centrifugation was performed at 12000 rpm for 10 mins. 200 μl supernatant pigment was put in a 96-well culture plate, and was measured for absorbance value at 585 nm by a Microplate Reader, […] the absorbance value and the corresponding concentration were plotted to get the IC50 value.

Take `CCCCCC(=O)Nc1ccc(S(=O)(=O)N[C@H]2CCOC2=O)cc1` [Compound 4, (S)-N-(4-(N-(2-oxotetrahydrofuran-3-yl)sulfamoyl)phenyl)hexanamide]: the melting point (usually the temperature of the solid-liquid transition) was 142 to 143 °C. For the same compound, the “Regulatory activity (bacterial quorum sensing)” value (shortened to “Regulatory activity”) with C. violaceum CV026 [1] is “−”. Moreover, the IC50 – broadly, the concentration at which inhibition is half-maximal – with C. violaceum CV026 [2] stood at 29 ± 2.41 µM. As for `Br.NC1CCOC1=O` (stereo not drawn) [Intermediate 1, (L)-homoserine lactone hydrobromide], the “Regulatory activity” value with C. violaceum CV026 [1] is given as “+”. Still for that read-out and setting: under `O=C(Nc1ccc(S(=O)(=O)N[C@H]2CCOC2=O)cc1)c1ccc(Cl)cc1` [Compound 14, (S)-4-chloro-N-(4-(N-(2-oxotetrahydrofuran-3-yl)sulfamoyl)phenyl)benzamide] stands “−”.

In the case of `O=C(Nc1ccc(S(=O)(=O)N[C@H]2CCOC2=O)cc1)c1ccccc1F` [Compound 24, (S)-2-fluoro-N-(4-(N-(2-oxotetrahydrofuran-3-yl)sulfamoyl)phenyl)benzamide], the “Regulatory activity” value in the series on C. violaceum CV026 [1] is on record as “−”. The IC50 with C. violaceum CV026 [2] was determined as 1.64 ± 0.27 µM. For `N#Cc1ccc(C(=O)Nc2ccc(S(=O)(=O)N[C@H]3CCOC3=O)cc2)cc1`, the melting point lay in the range of 230 to 231 °C. With `O=C(Nc1ccc(S(=O)(=O)N[C@H]2CCOC2=O)cc1)c1cccc(F)c1` [Compound 23, (S)-3-fluoro-N-(4-(N-(2-oxotetrahydrofuran-3-yl)sulfamoyl)phenyl)benzamide], the “Regulatory activity” value with C. violaceum CV026 [1] was “−”. In addition, the IC50 in the series with C. violaceum CV026 [2] is 7.79 ± 2.68 µM. Regarding `O=C(Nc1ccc(S(=O)(=O)N[C@H]2CCOC2=O)cc1)c1ccc(F)cc1` [Compound 17, (S)-4-fluoro-N-(4-(N-(2-oxotetrahydrofuran-3-yl)sulfamoyl)phenyl)benzamide], the melting point is 236 to 237 °C. Also, in the series with C. violaceum CV026 [1], the “Regulatory activity” value is “−”. Also, in the series on C. violaceum CV026 [2], the IC50 turned out to be 14.7 ± 2.58 µM.

For the compound `O=C(Nc1ccc(S(=O)(=O)N[C@H]2CCOC2=O)cc1)c1ccccc1Cl` [Compound 28, (S)-2-chloro-N-(4-(N-(2-oxotetrahydrofuran-3-yl)sulfamoyl)phenyl)benzamide], in the series on C. violaceum CV026 [1], the “Regulatory activity” value is reported as “−”. Further, the IC50 with C. violaceum CV026 [2] turned out to be 1.66 ± 0.33 µM. Regarding `O=C(Nc1ccc(S(=O)(=O)N[C@H]2CCOC2=O)cc1)c1ccc([N+](=O)[O-])cc1`, the melting point is 257 to 258 °C.

With `CCCc1ccc(C(=O)Nc2ccc(S(=O)(=O)N[C@H]3CCOC3=O)cc2)cc1`, the melting point lay within 247 to 249 °C.

As to `O=C(Cc1ccccc1)Nc1ccc(S(=O)(=O)N[C@H]2CCOC2=O)cc1`, the melting point is 157 to 158 °C. `CCCCC(=O)Nc1ccc(S(=O)(=O)N[C@H]2CCOC2=O)cc1` [Compound 3, (S)-N-(4-(N-(2-oxotetrahydrofuran-3-yl)sulfamoyl)phenyl)pentanamide] showed a melting point of 174 to 176 °C. In the series on C. violaceum CV026 [1], the “Regulatory activity” value is “−”. Turning to `Cc1cccc(C(=O)Nc2ccc(S(=O)(=O)N[C@H]3CCOC3=O)cc2)c1` [Compound 20, (S)-3-methyl-N-(4-(N-(2-oxotetrahydrofuran-3-yl)sulfamoyl)phenyl)benzamide], the melting point is 193 to 194 °C. Further, the “Regulatory activity” value with C. violaceum CV026 [1] is listed as “−”. In the case of `CC(=O)Nc1ccc(S(=O)(=O)N[C@H]2CCOC2=O)cc1` [Intermediate 2, (S)-N-(4-(N-(2-oxotetrahydrofuran-3-yl)sulfamoyl)phenyl)acetamide], the “Regulatory activity” value with C. violaceum CV026 [1] is reported as “−”. For `O=C(Nc1ccc(S(=O)(=O)N[C@H]2CCOC2=O)cc1)c1ccc(Br)cc1` [Compound 12, (S)-4-bromo-N-(4-(N-(2-oxotetrahydrofuran-3-yl)sulfamoyl)phenyl)benzamide], the melting point lay in the range of 112 to 113 °C. Also, in the series with C. violaceum CV026 [1], the “inhibitory or agonizing effect on bacterial quorum sensing (in words)” value is “both an agonizing effect and an inhibitory effect”; the “Regulatory activity” value was “±”. In turn, `O=C(Nc1ccc(S(=O)(=O)N[C@H]2CCOC2=O)cc1)c1ccc(CCl)cc1` [Compound 15, (S)-4-(chloromethyl)-N-(4-(N-(2-oxotetrahydrofuran-3-yl)sulfamoyl)phenyl)benzamide] registered a melting point of 251 to 253 °C. For the same compound, in the series on C. violaceum CV026 [1], the “inhibitory or agonizing effect on bacterial quorum sensing (in words)” value is given as “agonizing effect” and the “Regulatory activity” value is on record as “+”. Regarding `CC(C)(C)c1ccc(C(=O)Nc2ccc(S(=O)(=O)N[C@H]3CCOC3=O)cc2)cc1` [Compound 16, (S)-4-(tert-butyl)-N-(4-(N-(2-oxotetrahydrofuran-3-yl)sulfamoyl)phenyl)benzamide], the melting point lay in the range of 207 to 208 °C. In addition, the “Regulatory activity” value with C. violaceum CV026 [1] is on record as “−”. `CCCC(=O)Nc1ccc(S(=O)(=O)N[C@H]2CCOC2=O)cc1` [Compound 2, (S)-N-(4-(N-(2-oxotetrahydrofuran-3-yl)sulfamoyl)phenyl)butyrylamide] gave a melting point of 180 to 182 °C. Besides, the “Regulatory activity” value in the series with C. violaceum CV026 [1] is “−”.

`CCOc1ccc(C(=O)Nc2ccc(S(=O)(=O)N[C@H]3CCOC3=O)cc2)cc1` yielded a melting point of 256 to 258 °C. In the case of `O=C(Nc1ccc(S(=O)(=O)N[C@H]2CCOC2=O)cc1)c1cccc(Cl)c1` [Compound 22, (S)-3-chloro-N-(4-(N-(2-oxotetrahydrofuran-3-yl)sulfamoyl)phenyl)benzamide], the melting point is 213 to 214 °C. The “Regulatory activity” value in the series with C. violaceum CV026 [1] is listed as “−”. In turn, `CCCCCCCCC(=O)Nc1ccc(S(=O)(=O)N[C@H]2CCOC2=O)cc1` gave a melting point of 150 to 152 °C. In the case of `CCCCCCC(=O)Nc1ccc(S(=O)(=O)N[C@H]2CCOC2=O)cc1` [Compound 5, (S)-N-(4-(N-(2-oxotetrahydrofuran-3-yl)sulfamoyl)phenyl)heptamide], the melting point is 143 to 144 °C. For the same compound, in the series with C. violaceum CV026 [1], the “Regulatory activity” value is recorded as “−”. On to `O=C(Nc1ccc(S(=O)(=O)N[C@H]2CCOC2=O)cc1)c1ccccc1` [Compound 9, (S)-N-(4-(N-(2-oxotetrahydrofuran-3-yl)sulfamoyl)phenyl)benzamide], for which, in the series on C. violaceum CV026 [1], the “Regulatory activity” value is reported as “−”. Also, the IC50 with C. violaceum CV026 [2] was found to be 17.2 ± 2.6 µM. `CCCCCCCC(=O)Nc1ccc(S(=O)(=O)N[C@H]2CCOC2=O)cc1` [Compound 6, (S)-N-(4-(N-(2-oxotetrahydrofuran-3-yl)sulfamoyl)phenyl)octanamide] returned a melting point of 146 to 148 °C. Moreover, in the series on C. violaceum CV026 [1], the “Regulatory activity” value is “−”. `CCC(=O)Nc1ccc(S(=O)(=O)N[C@H]2CCOC2=O)cc1` [Compound 1, (S)-N-(4-(N-(2-oxotetrahydrofuran-3-yl)sulfamoyl)phenyl) propanamide] returned a melting point of 179 to 181 °C. Also, in the series on C. violaceum CV026 [1], the “Regulatory activity” value is listed as “−”.
